Each structure is given as a SMILES string.

Format in all cases: functional
One assay deals with Staphylococcus aureus. Nature of the assay: Antibacterial activity against Staphylococcus aureus ATCC 25923 assessed as growth inhibition by broth microdilution method. In general terms: Dilution methods test growth across graded concentrations, often in twofold steps.
The next assay relates to Candida albicans. In words: Antifungal activity against Candida albicans ATCC 10231 assessed as growth inhibition by broth microdilution method.
The subject of another assay is Pseudomonas aeruginosa. In words: Antibacterial activity against Pseudomonas aeruginosa ATCC 27853 assessed as growth inhibition by broth microdilution method.
A further assay has as its system Escherichia coli. Nature of the assay: Antibacterial activity against Escherichia coli ATCC 25922 assessed as growth inhibition by broth microdilution method.
In another assay the test system is Aspergillus niger. Nature of the assay: Antifungal activity against Aspergillus niger ATCC 1015 assessed as growth inhibition by broth microdilution method.
A further assay deals with Enterococcus faecalis. Nature of the assay: Antibacterial activity against Enterococcus faecalis ATCC 29212 assessed as growth inhibition by broth microdilution method.

For the molecule `COc1ccc(/C=C/C(=O)c2ccc(NC(=O)CSc3nc4ccccc4[nH]3)cc2)cc1OC`, the minimal inhibitory concentration (MIC) – broadly, the lowest concentration found to suppress growth – in the assay on Staphylococcus aureus is 62.5 µg/mL; with Candida albicans, 125 µg/mL; in the assay with Pseudomonas aeruginosa, 125 µg/mL; in the assay with Escherichia coli, 31.2 µg/mL; in the assay with Aspergillus niger, 62.5 µg/mL; in the assay with Enterococcus faecalis, 250 µg/mL.
Turning to `O=C(CSc1nc2ccccc2[nH]1)Nc1ccc(C(=O)/C=C/c2ccc([N+](=O)[O-])cc2)cc1`, the MIC in the assay with Staphylococcus aureus was 62.5 µg/mL; in the assay with Candida albicans it was 125 µg/mL; in the assay with Pseudomonas aeruginosa it was 125 µg/mL; in the assay on Escherichia coli, 62.5 µg/mL; in the assay with Aspergillus niger it was 62.5 µg/mL; in the assay on Enterococcus faecalis it was 125 µg/mL.
Consider `CN(C)c1ccc(/C=C/C(=O)c2ccc(NC(=O)CSc3nc4ccccc4[nH]3)cc2)cc1`, for which the minimal inhibitory concentration (MIC) was found to be 125 µg/mL with Staphylococcus aureus; 125 µg/mL in the assay on Candida albicans; 125 µg/mL in the assay on Pseudomonas aeruginosa; 31.2 µg/mL in the assay with Escherichia coli; 125 µg/mL with Aspergillus niger; 125 µg/mL in the assay on Enterococcus faecalis.
As for `O=C(CSc1nc2ccccc2[nH]1)Nc1ccc(C(=O)/C=C/c2ccc(Br)cc2)cc1`, the MIC in the assay with Staphylococcus aureus was found to be 125 µg/mL; in the assay on Candida albicans, 250 µg/mL; in the assay on Pseudomonas aeruginosa, 125 µg/mL; in the assay on Escherichia coli, 31.2 µg/mL; with Aspergillus niger, 125 µg/mL; in the assay with Enterococcus faecalis, 125 µg/mL.
As for `O=C(CSc1nc2ccccc2[nH]1)Nc1ccc(C(=O)/C=C/c2cccc(Cl)c2)cc1`, the minimum inhibitory concentration (MIC) with Staphylococcus aureus was 31.2 µg/mL; in the assay on Candida albicans, 250 µg/mL; with Pseudomonas aeruginosa, 125 µg/mL; in the assay on Escherichia coli it was 62.5 µg/mL; in the assay on Aspergillus niger it was 125 µg/mL; with Enterococcus faecalis, 125 µg/mL.
Consider `O=C(CSc1nc2ccccc2[nH]1)Nc1ccc(C(=O)/C=C/c2cccc(Br)c2)cc1`, for which the minimum inhibitory concentration (MIC) came out at 31.2 µg/mL in the assay on Staphylococcus aureus; 250 µg/mL with Candida albicans; 125 µg/mL in the assay with Pseudomonas aeruginosa; 62.5 µg/mL in the assay on Escherichia coli; 250 µg/mL in the assay on Aspergillus niger; 250 µg/mL in the assay with Enterococcus faecalis.
Turning to `COc1cc(/C=C/C(=O)c2ccc(NC(=O)CSc3nc4ccccc4[nH]3)cc2)cc(OC)c1OC`, the minimal inhibitory concentration (MIC) in the assay on Staphylococcus aureus turned out to be 31.2 µg/mL; in the assay with Candida albicans, 125 µg/mL; with Pseudomonas aeruginosa it was 125 µg/mL; in the assay on Escherichia coli, 31.2 µg/mL; in the assay with Aspergillus niger, 250 µg/mL; in the assay with Enterococcus faecalis it was 250 µg/mL.
For the molecule `O=C(CSc1nc2ccccc2[nH]1)Nc1ccc(C(=O)/C=C/c2ccccc2[N+](=O)[O-])cc1`, the minimal inhibitory concentration (MIC) turned out to be 31.2 µg/mL in the assay with Staphylococcus aureus; 250 µg/mL in the assay on Candida albicans; 250 µg/mL with Pseudomonas aeruginosa; 31.2 µg/mL with Escherichia coli; 250 µg/mL in the assay on Aspergillus niger; 250 µg/mL with Enterococcus faecalis.
Take `COc1ccc(OC)c(/C=C/C(=O)c2ccc(NC(=O)CSc3nc4ccccc4[nH]3)cc2)c1`: the MIC in the assay with Staphylococcus aureus came to 31.2 µg/mL; with Candida albicans it was 250 µg/mL; in the assay with Pseudomonas aeruginosa it was 125 µg/mL; with Escherichia coli, 31.2 µg/mL; in the assay with Aspergillus niger, 125 µg/mL; in the assay on Enterococcus faecalis, 125 µg/mL.
For the molecule `COc1cc(/C=C/C(=O)c2ccc(NC(=O)CSc3nc4ccccc4[nH]3)cc2)ccc1O`, the MIC in the assay with Staphylococcus aureus stood at 15.6 µg/mL; in the assay with Candida albicans, 62.5 µg/mL; in the assay on Pseudomonas aeruginosa, 250 µg/mL; in the assay on Escherichia coli it was 62.5 µg/mL; with Aspergillus niger it was 125 µg/mL; in the assay on Enterococcus faecalis, 250 µg/mL.
Turning to `O=C(CSc1nc2ccccc2[nH]1)Nc1ccc(C(=O)/C=C/c2c(O)ccc3ccccc23)cc1`, the minimum inhibitory concentration (MIC) in the assay with Staphylococcus aureus was 62.5 µg/mL; in the assay on Candida albicans, 125 µg/mL; in the assay on Pseudomonas aeruginosa, 62.5 µg/mL; with Escherichia coli, 62.5 µg/mL; in the assay with Aspergillus niger it was 62.5 µg/mL; with Enterococcus faecalis, 250 µg/mL.
On to `O=C(CSc1nc2ccccc2[nH]1)Nc1ccc(C(=O)/C=C/c2ccccc2O)cc1`, for which the MIC with Staphylococcus aureus was 62.5 µg/mL; in the assay with Candida albicans, 62.5 µg/mL; with Pseudomonas aeruginosa, 31.2 µg/mL; with Escherichia coli it was 31.2 µg/mL; in the assay with Aspergillus niger, 125 µg/mL; in the assay on Enterococcus faecalis, 125 µg/mL.
Regarding `COc1ccc(/C=C/C(=O)c2ccc(NC(=O)CSc3nc4ccccc4[nH]3)cc2)cc1`, the MIC worked out at 31.2 µg/mL with Staphylococcus aureus; 125 µg/mL with Candida albicans; 250 µg/mL in the assay with Pseudomonas aeruginosa; 62.5 µg/mL with Escherichia coli; 125 µg/mL with Aspergillus niger; 250 µg/mL in the assay on Enterococcus faecalis.
With `O=C(CSc1nc2ccccc2[nH]1)Nc1ccc(C(=O)/C=C/c2ccc(O)cc2)cc1`, the MIC was found to be 31.2 µg/mL with Staphylococcus aureus; 125 µg/mL in the assay on Candida albicans; 250 µg/mL in the assay with Pseudomonas aeruginosa; 62.5 µg/mL in the assay on Escherichia coli; 125 µg/mL in the assay on Aspergillus niger; 125 µg/mL in the assay on Enterococcus faecalis.
`O=C(CSc1nc2ccccc2[nH]1)Nc1ccc(C(=O)/C=C/c2ccccc2)cc1`: the MIC was 250 µg/mL in the assay on Staphylococcus aureus; 250 µg/mL in the assay on Candida albicans; 250 µg/mL with Pseudomonas aeruginosa; 125 µg/mL in the assay on Escherichia coli; 125 µg/mL in the assay with Aspergillus niger; 250 µg/mL in the assay on Enterococcus faecalis.
For the molecule `O=C(CSc1nc2ccccc2[nH]1)Nc1ccc(C(=O)/C=C/c2ccc(Cl)cc2)cc1`, the minimal inhibitory concentration (MIC) came out at 125 µg/mL with Staphylococcus aureus; 250 µg/mL with Candida albicans; 125 µg/mL in the assay with Pseudomonas aeruginosa; 62.5 µg/mL with Escherichia coli; 125 µg/mL with Aspergillus niger; 250 µg/mL in the assay with Enterococcus faecalis.
Regarding `O=C(O)c1cn(C2CC2)c2cc(N3CCNCC3)c(F)cc2c1=O` [CIPROFLOXACIN], the minimum inhibitory concentration (MIC) with Staphylococcus aureus is 62.5 µg/mL; in the assay on Pseudomonas aeruginosa, 125 µg/mL; in the assay on Escherichia coli, 125 µg/mL; in the assay with Enterococcus faecalis, 125 µg/mL.
For `OC(Cn1cncn1)(Cn1cncn1)c1ccc(F)cc1F` [FLUCONAZOLE], the minimum inhibitory concentration (MIC) amounted to 125 µg/mL in the assay on Candida albicans and 62.5 µg/mL with Aspergillus niger.

These data come from ChEMBL document CHEMBL3046776, “Antibacterial and antifungal screening of newly synthesized benzimidazole-clubbed chalcone derivatives” (2013).
